From US10577322B2, “5-methoxytryptophan and its derivatives and uses thereof” (National Health Research Institutes, priority 2015, dated 2020)

Legend:
Myeloperoxidase (MPO) = test: MPO activity assay in lung tissues; assay type: in vivo, mice; conditions: 5-MTP 23.4 mg/kg, 16 h
Description: Myeloperoxidase (MPO) activity of lung tissue was assayed by Myeloperoxidase fluorometric detection kit (Enzo Life Sciences). In brief, lung tissue specimens were homogenized by Tissuelyser II (Qiagen) in tissue protein extraction buffer (pH 7.4 25 mM Tris buffer, 150 mM NaCl, 0.5% sodium deoxycholate, 2% NP-40 and 0.2% SDS), and centrifuged at 12,000×g for […] at 4° C. The supernatants were removed and the pellets were homogenized by Tissuelyser II for 30 seconds in 1 ml assay buffer with 0.5% hexadecyltrimethylammonium, and then samples were frozen, thawed three times, andcentrifuged at 8,000×g for 20 min. Collected supernatants and standard were mixed with reaction cocktail (50 μM detection reagent and 20 μM hydrogen peroxide in 1X assay buffer at room temperature in the dark. After 30 min incubation, MPO activity was determined by measuring the fluorescence intensity at excitation 530 nm and emission at 600 nm in a fluorescent plate reader.
In addition, MPO activity was determined in lung tissues of mice treated with saline or LPS in the presence or absence of 5-MTP (23.4 mg/kg) for 16 h (n=6 mice/group).

chemokines = test: Serum chemokine level in LPS-injected mice (ELISA); assay type: in vivo; conditions: 5-MTP 23.4 mg/kg, 24 h
Description: Furthermore, chemokine level was measured by ELISA in the serum of saline or LPS-injected mice with or without saline or 5-MTP (23.4 mg/kg) after 24 h (n=10). The results shown in FIG. 8C indicate that LPS-induced elevation of chemokines, CXCL1, MCP-1, RANTES and eotaxin in the serum was blunted by 5-MTP treatment at 24 h.

NF-κB p65 = test: Phospho-p65 level in lung tissues (ELISA kit); assay type: in vivo, mice; conditions: 4 and 8 h after LPS, 5-MTP 23.4 mg/kg
Description: Since NF-κB activation plays a critical role in the initiation and progression of systemic inflammation and septic pathology, the effect of 5-MTP on NF-κB activation in lung tissue was evaluated. Phospho-p65 level in lung tissues was determined by an ELISA kit at 4 and 8 h after LPS infusion with or without 5-MTP (23.4 mg/kg) (n=6 mice/group).

iNOS = iNOS immunohistochemistry in lung tissues of LPS-treated mice; assay type: in vivo; conditions: LPS 60 mg/kg; 12 h, 16 h and 24 h
Description: Prior to immunohistochemical detection of COX-2, iNOS, Ly6g, or cleaved caspase-3 in lung sections, sections were deparaffinized with xylene, progressively rehydrated through graded alcohols. Antigen sites were retrieved by heating the sections on slides in pH 8 EDTA antigen. retrieval (Trilogy; Cell Marque Corporation) in electric pressure cooker for 15 min. […] All antibodies described hereafter were diluted in blocking buffer. Sections were incubated at room temperature for 2 h with primary antibody and then washed in PBST. The sections were incubated with primary antibody amplifier quanta (Thermo) for 10 minutes. After rinsing with PBST, the sections were incubated with HRP Polymer Quanto (Thermo) for 10 minutes and washed three times with PBST. COX-2, iNOS, Ly6g and cleaved caspase-3 were visualized by the addition of DAB Quanto Chromogen: Substrate for 3 minutes. Tissues were also counterstained with hematoxylin.
Moreover, paraffin-embedded sections were prepared from lungs of mice injected with 60 mg/kg LPS with or without saline or 5-MTP at 12 h, 16 h and 24 h. COX-2 and inducible nitric oxide synthase (iNOS) protein levels in lung tissues were determined by immunohistochemistry by staining with anti-COX-2 and anti-iNOS antibodies, respectively. The results are shown in FIGS. 6A-6B, in which scale bars represent 100 μm. […]

COX-2 = test: LPS-induced COX-2 expression in peritoneal macrophages (western blot); assay type: cell-based; conditions: primary mouse peritoneal macrophages, LPS 8 h
Description: For peritoneal macrophage isolation, C57BL/6J mice were injected intraperitoneally with 2 ml of 4% thioglycollate. Four days after injection, the peritoneal cavity was washed with 5 ml of ice-cold RPMI1640 medium, and cells from the peritoneal exudates were collected by centrifugation, and suspended in RPMI1640 medium, then seeded on 15-cm dishes and allowed to adhere for 4 h. Floating cells were washed out, and adherent cells were used as peritoneal macrophages in the experiments. The cells were incubated with or without LPS (100 ng/ml) for the indicated time before each experiment, as in the protocol for the RAW264.7 cells.
Furthermore, peritoneal macrophages were stimulated with LPS with or without 5-MTP. After 8 h, COX-2 protein expression was determined by western blot. The experiments were repeated 3 times with similar results.

peritoneal macrophages = test: Ex vivo cytokine production of peritoneal macrophages from endotoxemic mice; assay type: in vivo; conditions: macrophages isolated 8 h after LPS, 5-MTP 23.4 mg/kg, cultured 24 h
Description: To further confirm that 5-MTP deactivates peritoneal macrophages during endotoxemia, we evaluated the effect of 5-MTP on IL-1β and IL-6 production ex vivo in peritoneal macrophages isolated from untreated or 5-MTP-treated endotoxemic mice. Peritoneal macrophages were isolated 8 h after LPS injection with saline or 5-MTP (23.4 mg/kg) and cultured with medium alone. After 24 h, proinflammatory cytokines were measured by ELISA (n=3).

TNF-α = test: LPS-induced TNF-α production in RAW264.7 cells; assay type: cell-based, mouse; conditions: data not shown
[1] = Spleen weight/body weight ratio in LPS-challenged mice; assay type: in vivo
Description: Furthermore, spleen weight/body weight (SW/BW) ratio was also assessed (n=6 mice/group).

lung tissues = test: Lung histology (H&E) in LPS-treated mice; assay type: in vivo; conditions: LPS 60 mg/kg
Description: For histological studies, the lungs were perfused with saline, and immersed in formalin for 24 h. Tissue blocks were placed in formalin, dehydrated in a graded series of ethanol, embedded in paraffin, cut into 3 μm-thick serial sections, and stained with haematoxylin and eosin for detecting inflammatory cells, alveolar congestion and alveolar septal wall thickness and interstitial edema.
In addition, paraffin-embedded sections were prepared from lungs of mice injected with 60 mg/kg LPS with or without saline or 5-MTP for the indicated time. Lung tissues were stained with hematoxylin and eosin and examined under light microscopy. The results are shown in FIG. 5C, in which scale bars represent 100 μm.

SMILES: COc1ccc2[nH]cc(C[C@H](N)C(=O)O)c2c1 [5-MTP, 5-methoxytryptophan]
- lung MPO activity (Myeloperoxidase (MPO)): reduced neutrophil infiltration to the basal level
- LPS-induced elevation of CXCL1 in serum (chemokines): blunted
- LPS-induced elevation of MCP-1 in serum (chemokines): blunted
- LPS-induced elevation of RANTES in serum (chemokines): blunted
- LPS-induced elevation of eotaxin in serum (chemokines): blunted
- phosphorylation level of NF-κB p65 in lung tissues (NF-κB p65): reduced by 5-MTP
- iNOS expression in lung tissues (iNOS): suppresses
- LPS-induced COX-2 expression (COX-2): inhibited
- ex vivo IL-1β production (peritoneal macrophages): significantly suppressed
- ex vivo IL-6 production (peritoneal macrophages): significantly suppressed
- TNF-α production (TNF-α): inhibited
- spleen weight/body weight (SW/BW) ratio, spleen edema [1]: ameliorated spleen edema in a dose-dependent manner
- LPS-induced lung pathological changes (leukocyte infiltration, septal wall thickening, edema, congestion) (lung tissues): significantly alleviated
